{"source": "paper PMC11838108", "about": "“Screening and evaluation of novel DPP-IV inhibitory peptides in goat milk based on molecular docking and molecular dynamics simulation” (Food Chemistry: X, 2025)", "key": {"[1]": {"target": "angiotensin-converting enzyme (ACE)", "conditions": "ref Chen, Yu, Wu, & He, 2022, read-out: ACE inhibitory IC50; cited from earlier work"}, "[2]": {"target": "T1, DPP-IV (Homo sapiens, UniProt P27487)", "T1 sequence (P27487 whole entry)": "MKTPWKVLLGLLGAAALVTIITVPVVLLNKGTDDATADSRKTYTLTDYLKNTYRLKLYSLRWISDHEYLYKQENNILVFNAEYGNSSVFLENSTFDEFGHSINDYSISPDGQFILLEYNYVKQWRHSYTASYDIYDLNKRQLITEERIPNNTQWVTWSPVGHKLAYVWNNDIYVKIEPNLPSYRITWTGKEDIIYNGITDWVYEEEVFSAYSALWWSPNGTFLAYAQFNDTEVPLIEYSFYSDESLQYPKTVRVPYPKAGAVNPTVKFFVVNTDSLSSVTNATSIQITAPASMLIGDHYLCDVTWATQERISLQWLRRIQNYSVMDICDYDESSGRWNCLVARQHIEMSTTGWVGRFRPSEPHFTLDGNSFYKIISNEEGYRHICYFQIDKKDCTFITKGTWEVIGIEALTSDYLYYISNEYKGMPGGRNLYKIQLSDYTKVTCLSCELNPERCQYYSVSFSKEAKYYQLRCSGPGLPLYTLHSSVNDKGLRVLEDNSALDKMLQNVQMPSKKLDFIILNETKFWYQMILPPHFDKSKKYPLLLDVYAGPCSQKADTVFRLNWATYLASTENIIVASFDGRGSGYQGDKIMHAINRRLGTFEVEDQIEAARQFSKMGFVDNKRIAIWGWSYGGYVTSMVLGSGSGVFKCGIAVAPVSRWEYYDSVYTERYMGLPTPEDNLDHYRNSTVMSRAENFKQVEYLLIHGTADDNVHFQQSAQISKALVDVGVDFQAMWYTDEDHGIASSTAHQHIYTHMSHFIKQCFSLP", "assay": "DPP-IV inhibition by the peptides (Gly-Pro-pNA substrate)", "type": "biochemical", "conditions": "Gly-Pro-pNA 0.2 mM, DPP-IV 0.0025 U/mL, 60 min; read-out: DPP-IV inhibitory activity IC50", "experimental": "Peptides were prepared at various concentrations and transferred to a 96-well microplate containing Gly-Pro-pNA (0.2 mM). The microplates were then incubated for 5 min. Subsequently, DPP-IV (0.0025 U/mL) was added, followed by an additional incubation for 60 min. […] The peptides, Gly-Pro-pNA, and DPP-IV were then dissolved in Tris-HCl (0.1 M). Tris-HCl was used as the negative control with DPP-IV but without the peptides and as the blank control without the peptides or DPP-IV."}, "[3]": {"target": "T1, DPP-IV", "assay": "DPP-IV inhibitory activity of peptides after in vitro simulated digestion", "type": "biochemical", "conditions": "GL-6 at 130.68 μM, LY-5 at 179.52 μM; after oral-gastric-intestinal digestion", "experimental": "The method outlined by Nongonierma et al. ([Nongonierma & FitzGerald, 2013]) was adapted for our study. Peptides were prepared at various concentrations and transferred to a 96-well microplate containing Gly-Pro-pNA (0.2 mM). The microplates were then incubated for 5 min. Subsequently, DPP-IV (0.0025 U/mL) was added, followed by an additional incubation for 60 min. The absorbance of the mixture was measured at 405 nm. The peptides, Gly-Pro-pNA, and DPP-IV were then dissolved in Tris-HCl (0.1 M). Tris-HCl was used as the negative control with DPP-IV but without the peptides and as the blank control without the peptides or DPP-IV. Sitagliptin was used as the positive control instead of the peptides. The formula for calculating the inhibitory activity was as follows: DPP−IVinhibitory activity%=Ac−As/Ac−Ab×100 where absorbance values for the control, sample, and blank groups were designated as Ac, As, and Ab, respectively.\n(§1) Based on the method described by Brodkorb et al. ([Brodkorb et al., 2019]), the following solutions were prepared: SSF, SGF, and SIF salt solutions, and salivary amylase, pepsin, and trypsin solutions.\nEach peptide was dissolved at a concentration of 1 mg/mL, and 0.094 mL of SSF, 0.001 mL of CaCl2·2H2O (0.3 M), 0.025 mL of salivary amylase (75 U/mL), and 0.005 mL of H2O were sequentially added, for a total volume of 0.25 mL. […]"}, "[4]": {"system": "Caco-2 cells", "assay": "Cytotoxicity assay (CCK-8)", "type": "cell-based", "conditions": "24 h, GL-6 0.195–3.11 mM, LY-5 0.193–3.07 mM", "experimental": "A peptide cytotoxicity assay using Caco-2 cells was conducted based on the method outlined by Hao et al. with minor modifications ([Hao et al., 2020]). Initially, the cells were evenly seeded on a 96-well plate with 100 μL of 2 × 10^4 cells. After seeding, the plate was placed in a sterile and CO2-enriched incubator. After a 24-h incubation, the medium was removed, and the adherent cells were used for subsequent experiments. The peptides were dissolved in the basal medium (DMEM) and cells were treated with different concentrations of peptides. After a 24-h incubation period, 10 μL of CCK-8 was added to each well and incubated with the cells. The absorbance at 450 nm was recorded to determine cell viability.\nThe following formula was used to calculate cell viability, with cells cultured in the basal medium used as the control group for comparison: Cell viability%=Asample/Acontrol×100"}, "[5]": {"system": "T2, DPP-IV", "T2 construct": "endogenous in cells; host or cells: Caco-2 cells (Haixing Biological Technology Co., Ltd.)", "assay": "DPP-IV inhibitory activity in Caco-2 cells (Gly-Pro-AMC substrate)", "type": "cell-based", "conditions": "peptide 2 mg/mL (GPFPLL 3.11 mM, LPYPY 3.07 mM), 24 h", "experimental": "Caco-2 cells were seeded on a black 96-well plate at a density of 2 × 10^4 cells per well. Subsequently, the cells were treated with sample solutions at various concentrations and then further incubated for 24 h. After incubating, the peptide solutions and medium were removed from the wells, and 100 μL of the Gly-Pro-AMC substrate (50 μM) was added to each well and incubated for 10 min at 37 °C."}, "[6]": {"assay": "Stability of peptides after in vitro simulated digestion (RP-HPLC)", "type": "in vitro ADME", "design": "remaining at 2 min: dose or concentration left out as unconfirmed", "conditions": "for Oral-gastric digestion (stability of peptide): after oral and gastric phase; for Oral-gastric digestion (stability of peptide) / Oral-gastric-intestinal digestion (stability of peptide) / remaining at 2 min: RP-HPLC peak area; for Oral-gastric-intestinal digestion (stability of peptide): after oral, gastric and intestinal phase; for decrease of stability after intestinal digestion: relative to oral-gastric digestion; for remaining at 2 min: simulated salivary fluid (SSF) with salivary amylase, after oral phase, read-out: Oral digestion (stability of peptide)", "experimental": "as §1\nEach peptide was dissolved at a concentration of 1 mg/mL, and 0.094 mL of SSF, 0.001 mL of CaCl2·2H2O (0.3 M), 0.025 mL of salivary amylase (75 U/mL), and 0.005 mL of H2O were sequentially added, for a total volume of 0.25 mL. The mixture was then incubated in a 37 °C incubator for 2 min.\nBriefly, 0.25 mL of the oral digestion mixture was sequentially combined with 0.12 mL of SGF, 0.001 mL of CaCl2·2H2O (0.3 M), 0.048 mL of pepsin (2000 U/mL), 0.060 mL of SGF, 0.011 mL of H2O, and 0.010 mL of HCl (1 M), for a total volume of 0.5 mL. The mixture was then incubated in a 37 °C incubator for 2 h.\nA 0.50-mL sample of the gastric digestion mixture was successively combined with 0.195 mL of SIF, 0.001 mL of CaCl2·2H2O (0.3 M), 0.125 mL of trypsin (100 U/mL), 0.100 mL of SIF, and 0.079 mL of H2O. The mixture was then incubated in a 37 °C incubator for 2 h at a pH of 7.0.\nAfter oral, gastric, and intestinal digestion, the digestion mixture was filtered through a 0.22-μm sterile filter. The filtrate was stored at −20 °C for subsequent analysis.\nThe in vitro simulated digestion experiments of the peptides were conducted in accordance with the method described by Hao et al., with minor modifications ([Hao et al., 2020]). The stability of peptides post-digestion was assessed by RP-HPLC (CAP-CELL PAK C18 AQ S-5, 10 mm × 150 mm column, Shiseido, Tokyo, Japan) with a detection wavelength of 228 nm. The formula for determining the peptide stability was as follows: Stability of peptides%=Pa/Pb×100 where Pa represents the peak area of the digested sample, and Pb represents the peak area of the reference sample."}, "[7]": {"system": "DPP-IV", "conditions": "cited from earlier work"}, "[8]": {"design": "method as in Yin et al., 2022", "conditions": "ref Yin et al., 2022; cited from earlier work"}}, "note": "Like-named read-outs stand apart in the source and are kept apart here. Where no end group is shown, it is not given here."}
{"substance": "CDF", "values": [{"measurement": "IC50", "setting": "[1]", "result": 192, "unit": "µM"}]}
{"substance": "EACF", "values": [{"measurement": "IC50", "setting": "[1]", "result": 41.1, "unit": "µM"}]}
{"substance": "GPFPILN [GPFPILN]", "values": [{"measurement": "IC50", "setting": "[2]", "result": "198 ± 14.9", "unit": "µM"}]}
{"substance": "GPFPLL [GPFPLL]", "values": [{"measurement": "IC50", "setting": "[2]", "result": "131 ± 10.4", "unit": "µM"}, {"measurement": "DPP-IV inhibitory rate after intestinal digestion", "setting": "[3]", "result": "31.90 % ± 1.80"}, {"measurement": "cytotoxicity to Caco-2 cells", "setting": "[4]", "result": "Neither GL-6 nor LY-5 exhibited significant cytotoxicity"}, {"measurement": "DPP-IV inhibition rate in Caco-2 cells", "setting": "[5]", "result": "46.53 % ± 3.48"}, {"measurement": "Oral-gastric digestion (stability of peptide)", "setting": "[6]", "result": 96.37, "unit": "%"}, {"measurement": "Oral-gastric-intestinal digestion (stability of peptide)", "setting": "[6]", "result": 69.48, "unit": "%"}, {"measurement": "decrease of stability after intestinal digestion", "setting": "[6]", "result": 26.89, "unit": "%"}, {"measurement": "remaining at 2 min", "setting": "[6]", "result": 99.6, "unit": "%"}]}
{"substance": "IPYWTY", "values": [{"measurement": "mode of inhibition of DPP-IV", "setting": "[7]; pea protein peptide, ref Zhang, Zhu, et al., 2022", "result": "competitive inhibition"}]}
{"substance": "LLSPP", "values": [{"measurement": "stability after intestinal digestion", "setting": "[8]", "result": 80, "unit": "%"}]}
{"substance": "LPFYPN", "values": [{"measurement": "mode of inhibition of DPP-IV", "setting": "[7]; coix seed protein peptide, ref Zhang et al., 2023", "result": "competitive inhibition"}]}
{"substance": "LPVGP", "values": [{"measurement": "stability after intestinal digestion", "setting": "[8]", "result": 80, "unit": "%"}]}
{"substance": "LPYPY [LPYPY]", "values": [{"measurement": "IC50", "setting": "[2]", "result": "180 ± 18.9", "unit": "µM"}, {"measurement": "DPP-IV inhibitory rate after intestinal digestion", "setting": "[3]", "result": "39.37 % ± 0.90"}, {"measurement": "cytotoxicity to Caco-2 cells", "setting": "[4]", "result": "Neither GL-6 nor LY-5 exhibited significant cytotoxicity"}, {"measurement": "DPP-IV inhibition rate in Caco-2 cells", "setting": "[5]", "result": "65.98 % ± 2.87"}, {"measurement": "Oral-gastric digestion (stability of peptide)", "setting": "[6]", "result": 97.60, "unit": "%"}, {"measurement": "Oral-gastric-intestinal digestion (stability of peptide)", "setting": "[6]", "result": 81.99, "unit": "%"}, {"measurement": "decrease of stability after intestinal digestion", "setting": "[6]", "result": 15.61, "unit": "%"}, {"measurement": "remaining at 2 min", "setting": "[6]", "result": 99.5, "unit": "%"}]}
{"substance": "PPGIPYW", "values": [{"measurement": "mode of inhibition of DPP-IV", "setting": "[7]; chickpea protein peptide, ref Zan et al., 2023", "result": "competitive inhibition"}]}
